From PubChem BioAssay AID330 (DTP/NCI, 2004)
Values joined by “and” are separate entries in the source; they are usually repeats but may differ in a detail not shown here. Equal entries are not always repeated. Toxic doses and inconclusive results are not listed.

Tested on: P388 leukemia ip, CD2F1 mice, survival T/C
Assay: NCI In Vivo Anticancer Drug Screen. Data for tumor model P388 Leukemia (intraperitoneal) in CD2F1 (CDF1) mice
Settings: endpoint: median survival time, higher = longer survival
Method in brief: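 Mice carrying the transplanted tumor received test compound or vehicle. Survival was recorded in each group, and the value is the treated-group measurement divided by that of the vehicle-treated control group.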

[1] = dose: 60.0 mg/kg/injection, schedule: Q01DX005 (ip), vehicle: saline with Tween-80
[2] = dose: 120.0 mg/kg/injection, schedule: Q01DX005 (ip), vehicle: saline with Tween-80
[3] = dose: 240.0 mg/kg/injection, schedule: Q01DX005 (ip), vehicle: saline with Tween-80
[4] = dose: 50.0 mg/kg/injection, schedule: Q01DX005 (ip), vehicle: Klucel (hydroxypropylcellulose) (HPC)
[5] = dose: 100.0 mg/kg/injection, schedule: Q01DX005 (ip), vehicle: Klucel (hydroxypropylcellulose) (HPC)
[6] = dose: 200.0 mg/kg/injection, schedule: Q01DX005 (ip), vehicle: Klucel (hydroxypropylcellulose) (HPC)
[7] = dose: 100.0 mg/kg/injection, schedule: Q01DX009 (ip), vehicle: saline with Tween-80
[8] = dose: 200.0 mg/kg/injection, schedule: Q01DX009 (ip), vehicle: saline with Tween-80
[9] = dose: 50.0 mg/kg/injection, schedule: Q01DX005 (ip), vehicle: saline with Tween-80
[10] = dose: 100.0 mg/kg/injection, schedule: Q01DX005 (ip), vehicle: saline with Tween-80

SMILES: Cc1cc2cc(CN3C(=O)c4ccccc4C3=O)ccc2[nH]1
- T/C (dose: 100.0 mg/kg/injection, schedule: Q01DX001 (ip), vehicle: Klucel (hydroxypropylcellulose) (HPC)): 100 % of control
- T/C (dose: 200.0 mg/kg/injection, schedule: Q01DX001 (ip), vehicle: Klucel (hydroxypropylcellulose) (HPC)): 93 % of control
- T/C (dose: 400.0 mg/kg/injection, schedule: Q01DX001 (ip), vehicle: Klucel (hydroxypropylcellulose) (HPC)): 93 % of control

SMILES: C[N+]1=P(C)(C)N=P(C)(C)[N+](C)=P(C)(C)N=P1(C)C
- T/C (dose: 12.5 mg/kg/injection, schedule: Q01DX009 (ip), vehicle: saline): 95 % of control
- T/C (dose: 25.0 mg/kg/injection, schedule: Q01DX009 (ip), vehicle: saline): 95 % of control
- T/C (dose: 50.0 mg/kg/injection, schedule: Q01DX009 (ip), vehicle: saline): 116 % of control and 95 % of control

SMILES: c1ccc2c(c1)[nH]c1cc3c(cc12)CCCCC3
- T/C [1]: 107 % of control
- T/C [2]: 91 % of control
- T/C [3]: 97 % of control

SMILES: CC1(C)OC2OC(C3COC(=S)O3)C(O)C2O1 (stereo unspecified)
- T/C [4]: 98 % of control
- T/C [5]: 99 % of control
- T/C [6]: 103 % of control

SMILES: COC(=O)/C(Br)=C/N(Cc1ccccc1)Cc1ccccc1
- T/C [7]: 110 % of control
- T/C (dose: 100.0 mg/kg/injection, schedule: Q04DX003 (ip), vehicle: saline with Tween-80): 95 % of control
- T/C [8]: 100 % of control
- T/C (dose: 200.0 mg/kg/injection, schedule: Q04DX003 (ip), vehicle: saline with Tween-80): 95 % of control
- T/C (dose: 400.0 mg/kg/injection, schedule: Q01DX009 (ip), vehicle: saline with Tween-80): 110 % of control
- T/C (dose: 400.0 mg/kg/injection, schedule: Q04DX003 (ip), vehicle: saline with Tween-80): 95 % of control

SMILES: O=C1c2cccc3cc([N+](=O)[O-])cc(c23)C(=O)N1CCCNCCNCCCN1C(=O)c2cccc3cc([N+](=O)[O-])cc(c23)C1=O
- T/C [9]: 92 % of control
- T/C [10]: 154 % of control

SMILES: CN1CCCOC(c2ccccc2)c2ccsc2CC1 (stereo unspecified)
- T/C (dose: 7.5 mg/kg/injection, schedule: Q01DX005 (ip), vehicle: saline with Tween-80): 101 % of control
- T/C (dose: 15.0 mg/kg/injection, schedule: Q01DX005 (ip), vehicle: saline with Tween-80): 102 % of control
- T/C (dose: 30.0 mg/kg/injection, schedule: Q01DX005 (ip), vehicle: saline with Tween-80): 102 % of control
- T/C [1]: 101 % of control and 93 % of control

SMILES: NC(CSC(c1ccccc1)(c1ccccc1)c1ccccc1)C(=O)NCC(=O)O (stereo unspecified)
- T/C (dose: 600.0 mg/kg/injection, schedule: Q01DX009 (ip), vehicle: saline with Tween-80): 122 % of control

SMILES: Cc1ccc(O)c(C(=NCCN=C(c2ccccc2)c2cc(C)ccc2O)c2ccccc2)c1.[Cu]
- T/C (dose: 25.0 mg/kg/injection, schedule: Q01DX005 (ip), vehicle: Klucel (hydroxypropylcellulose) (HPC)): 98 % of control
- T/C [4]: 98 % of control
- T/C [5]: 96 % of control
- T/C [6]: 90 % of control

SMILES: O=[N+]([O-])c1ccc2c(N3CCC(CCCC4CCN(c5ncnc6cc([N+](=O)[O-])ccc56)CC4)CC3)ncnc2c1
- T/C [9]: 89 % of control
- T/C [10]: 96 % of control
- T/C (dose: 200.0 mg/kg/injection, schedule: Q01DX005 (ip), vehicle: saline with Tween-80): 100 % of control

SMILES: CC(=O)c1c(C)nc2c(-c3ccccc3)[nH]c(C)c2c1C
- T/C (dose: 100.0 mg/kg/injection, schedule: Q04DX003 (ip), vehicle: Klucel (hydroxypropylcellulose) (HPC)): 100 % of control
- T/C (dose: 200.0 mg/kg/injection, schedule: Q04DX003 (ip), vehicle: Klucel (hydroxypropylcellulose) (HPC)): 102 % of control
- T/C (dose: 400.0 mg/kg/injection, schedule: Q04DX003 (ip), vehicle: Klucel (hydroxypropylcellulose) (HPC)): 111 % of control

SMILES: CCCC(C(CC)CN(C)C)N(C)C (stereo unspecified)
- T/C (dose: 50.0 mg/kg/injection, schedule: Q01DX009 (ip), vehicle: saline with Tween-80): 101 % of control
- T/C [7]: 93 % of control

SMILES: CCCCN=C(N=C(N)N)NCC
- T/C (dose: 50.0 mg/kg/injection, schedule: Q01DX005 (ip), vehicle: saline): 102 % of control
- T/C (dose: 100.0 mg/kg/injection, schedule: Q01DX005 (ip), vehicle: saline): 102 % of control

SMILES: Clc1ccc(N=C(SSC(Cl)(Cl)Cl)SSC(Cl)(Cl)Cl)cc1
- T/C [8]: 114 % of control

SMILES: CCCCCCCCCCC(=O)Nc1ncc([N+](=O)[O-])s1
- T/C (dose: 50.0 mg/kg/injection, schedule: Q01DX009 (ip), vehicle: Klucel (hydroxypropylcellulose) (HPC)): 96 % of control
- T/C (dose: 100.0 mg/kg/injection, schedule: Q01DX009 (ip), vehicle: Klucel (hydroxypropylcellulose) (HPC)): 100 % of control
- T/C (dose: 200.0 mg/kg/injection, schedule: Q01DX009 (ip), vehicle: Klucel (hydroxypropylcellulose) (HPC)): 102 % of control

SMILES: CCOC(=O)C[C@@]1(C)C(=O)O[C@H](c2ccccc2)N1C(=O)c1ccccc1
- T/C [1]: 106 % of control
- T/C [2]: 100 % of control
- T/C [3]: 94 % of control

SMILES: CCCCCCCCCCCCCCCCCOC(=O)CCCCCCCCCCCCC
- T/C (dose: 100.0 mg/kg/injection, schedule: Q01DX001 (ip), vehicle: other): 100 % of control
- T/C (dose: 200.0 mg/kg/injection, schedule: Q01DX001 (ip), vehicle: other): 95 % of control
- T/C (dose: 400.0 mg/kg/injection, schedule: Q01DX001 (ip), vehicle: other): 90 % of control

SMILES: NC(=O)CNCC1Cc2ccccc21 (stereo unspecified)
- T/C (dose: 60.0 mg/kg/injection, schedule: Q01DX005 (ip), vehicle: saline): 102 % of control
- T/C (dose: 120.0 mg/kg/injection, schedule: Q01DX005 (ip), vehicle: saline): 98 % of control
